Experimental data taken from patent publication US20090186827A1, “Process of inhibiting cell death in injured cartilage” (The Scripps Research Institute, priority 2001, published 2009).
“Also recorded” adds a separate entry of the source. Where a SMILES comes first, the peptide text is derived from it. The star is where a group is joined. Cbz = O=C(OCc1ccccc1)*; CH2F = FC*

Experiments:
[1] = tested on: bovine cartilage explants; test: Load-induced chondrocyte apoptosis (TUNEL) in bovine cartilage explants; assay type: cell-based
Excerpt: Cartilage explants. Macroscopically normal weight bearing portions of freshly slaughtered skeletally mature bovine femoral condyles were selected from animals between 2 and 6 years of age (Animal Technologies, Austin, Tex.). Only joints without visible signs of degeneration or aging were selected. Using sterile techniques, full thickness cartilage was separated from underlying subchondral bone with a scalpel and 5 mm diameter cylindrical explants, ranging from 1 to 1.8 mm in height, cored out using a dermal punch (Acuderm, Inc., Ft. Lauderdale, Fla.). Explants taken from adjacent sites were used as matched controls for each group in each experiment to minimize variation in cartilage response due to differences in thickness and location within the joint. Each explant was weighed and allowed to stabilize at 37° C. and 5% CO2 for 48 hours in 1 ml of Dulbecco's modified Eagle's medium (DMEM) supplemented with 10% fetal bovine serum (FBS), L-glutamine, antibiotics and 50 μg/ml ascorbic acid.
(§1) Loading apparatus and procedure. […] Stress and strain data were recorded during the test.
Apoptosis detection. […] TUNEL positive cells emit a bright green fluorescence while TUNEL negative cells display an orange color due to propidium iodide counterstaining. […] Cells in all areas were counted and divided into TUNEL positive or TUNEL negative. […]

[2] = tested on: femoral and tibial articular cartilage; test: Intraarticular injection of caspase inhibitor in rabbits with anterior cruciate ligament transection (ACLT); assay type: in vivo, New Zealand White rabbits
Method: Intraarticular injection of caspase inhibitor in rabbits with ligament transection. A pilot study was performed to assess feasibility and efficacy of caspase inhibition in vivo. Eight New Zealand White rabbits were divided into anterior cruciate ligament transection (ACLT) and ACLT+caspase inhibitor (CI) groups. Both groups underwent bilateral ACLT. The ACLT+CI group was treated with intra-articular injections of 25 μg of z-VAD.fmk three times per week for six weeks while the control group received saline injections. Rabbits were euthanised at six weeks and femoral and tibial articular cartilage evaluated by India ink staining and histologic Mankin grading after Safranin-O stain.

human cartilage explants = test: Load-induced chondrocyte apoptosis (TUNEL) in human cartilage explants; assay type: cell-based; details: loaded explants (30% strain) cultured in 100 mM z-VAD.fmk after injury, 96 hours post-injury
Excerpt: Cartilage explants. Macroscopically normal tibial and femoral articular surfaces were selected from human cadaver donors between 18 and 45 years of age. Using sterile techniques, full thickness cartilage was separated from underlying subchondral bone with a scalpel. 5 mm diameter cylindrical explants, ranging from 2 to 2.8 mm in thickness, cored out using a dermal punch (Acuderm, Inc., Ft. Lauderdale, Fla.). Explants taken from adjacent sites were used as matched controls for each group in each experiment to minimize variation in cartilage response due to differences in thickness and location within the joint. […]
as §1
Caspase inhibition. […] Percentage apoptosis was measured at 96 hours post-injury in three groups (control, loaded, and loaded with z-VAD.fmk) with ten explants each in two separate experiments.
Apoptosis detection. […] This was detected by immunohistochemical staining with M30 (Cytodeath, Boehringer Mannheim, Eugene, Oreg.), a monoclonal antibody that recognizes the neo-epitope exposed in early apoptosis.
Chondrocyte apoptosis after mechanical injury to human cartilage. […] GAG release and percentage of cells undergoing apoptosis were measured at 96 hours after injury. […]

[3] = tested on: bovine cartilage explants; test: Glycosaminoglycan (GAG) release assay, mechanically injured bovine cartilage explants; assay type: cell-based; details: loaded bovine explants treated with caspase inhibitor
Method: Glycosaminoglycan release assay. To estimate GAG depletion and release, the concentration of sulfated glycosaminoglycans was measured using […] (DMMB) as a monitor of spectrophotometric changes which occur during the formation of the sulfated GAG dye complex (Farndale, et al. (1986) Biochim. Biophys. Acts. 883, 173-177, Goldberg, et al. (1993) Agents Actions 39 Spec No, C163-C165). For GAG content measurement, samples were digested in papain and collagenase and the concentration of sulfated GAG measured using DMMB. To generate a standard curve, chondroitin-6-sulfate (Sigma, St. Louis, Mo.) was used at concentrations between 1 and 200 μg/ml. GAG released in media was normalized to the pooled mean GAG content of Control (uninjured) cartilage explants and expressed as a percentage of total GAG content.
Inhibition of apoptosis. To determine whether apoptosis could be prevented by caspase inhibition, 12 explants were loaded at 23 MPa (High Load) and cultured for 48 hours. […] Percent apoptosis and GAG release in media was measured as described above.
Release of sulfated glycosaminoglycans (GAG) was analyzed as a measure of the extent of damage sustained by the explant. […] GAG depletion was assessed by dimethylene blue binding assays of the culture supernatants and this correlated with the reduced of safranin O staining of the cartilage sections.

COC(=O)CC(NC(=O)C(C)NC(=O)C(NC(=O)OCc1ccccc1)C(C)C)C(=O)CF (stereo not drawn) [z-VAD.fmk, benzyloxycarbonyl-Val-Ala-Asp (OMe) fluoromethylketone] (Cbz-Val-Ala-Asp(OMe)-CH2F; configuration not given here)
reduction in the apoptosis rate ([1]; high and intermediate load groups): > 50%
chondrocyte apoptosis after mechanical injury (in words) ([1]; loaded bovine explants, z-VAD.fmk 100 μM, 48 hours): reduced chondrocyte apoptosis
reduction of the size of the cartilage lesions (surface area, India ink stained femoral condyles) ([2]; 25 μg intra-articular three times per week for six weeks, bilateral ACLT): ~80%
cartilage lesions under India ink examination (in words) ([2]; ACLT+CI group, six weeks): lesions that were smaller in area
knees with Mankin grade 5 or higher ([2]; ACLT+CI group, six weeks, 4/8 knees): 50%
reduction in apoptotic rates (human cartilage explants): 50%
GAG release / GAG depletion (in words) [3]: reduction in GAG release; also recorded: normalization of the GAG depletion
